# Several values for one entry are separate records, joined by “and”; a condition that tells them apart may be missing. Equal values may be shown once. Read-outs that look alike come from different tables or passages of the source.
# Experiments:
# [1] = system: lymphocyte proliferation (LAF); cells from the thymus of normal BALB/c mice; assay: comitogen-induced thymocyte proliferation procedure (LAF); type: cell-based; settings: read-out: LAF IC50
# Protocol: The immunosuppressive activities for representative compounds of this invention were evaluated in an in vitro standard pharmacological test procedure to measure lymphocyte proliferation (LAF) and in an in vivo standard pharmacological test procedure which evaluated the survival time of pinch skin grafts. […] Cells are harvested and incorporated radioactivity is determined. Inhibition of lymphoproliferation is assessed as percent change in counts per minute from non-drug treated controls. The results are expressed as an IC50.
# [2] = stability in 0.1M phosphate buffer via HPLC; type: physicochemical
# Protocol: In addition, the stability of representative compounds was tested, via HPLC, in 0.1M phosphate buffer (pH 7.4, 37° C.).
# [3] = system: pinch skin graft from male DBA/2 donors transplanted to male BALB/c recipients; assay: survival time of pinch skin graft; type: in vivo, mice; settings: for Skin Graft (days), mean graft survival time: intraperitoneally, ± S.D.
# Protocol: Representative compounds of this invention were also evaluated in an in vivo test procedure designed to determine the survival time of pinch skin graft from male DBA/2 donors transplanted to male BALB/c recipients. The method is adapted from Billingham R. E. and Medawar P. B., J. Exp. Biol. 28:385-402, (1951). Briefly, a pinch skin graft from the donor is grafted on the dorsum of the recipient as a homograft, and an autograft is used as control in the same region. The recipients are treated with either varying concentrations of cyclosporin A as test control or the test compounds, intraperitoneally. Untreated recipients serve as rejection control. The graft is monitored daily and observations are recorded until the graft becomes dry and forms a blackened scab. This is considered as the rejection day. The mean graft survival time (number of days±S.D.) of the drug treatment group is compared with the control group.
# [4] = system: Candida albicans; settings: particularly against Candida albicans, both in vitro and in vivo; cited from earlier work
# [5] = system: insulin dependent diabetes mellitus; settings: cited from earlier work
# [6] = system: formation of IgE-like antibodies; settings: cited from earlier work
# [7] = system: systemic lupus erythematosus; settings: cited from earlier work
# [8] = system: adjuvant arthritis model, a model for rheumatoid arthritis; settings: cited from earlier work
# [9] = system: smooth muscle cell proliferation and intimal thickening following vascular injury; settings: cited from earlier work
# [10] = system: experimental allergic encephalomyelitis model, a model for multiple sclerosis; settings: cited from earlier work
# [11] = alone or in combination with picibanil; cited from earlier work
# [12] = BALB/c mouse thymocytes, PHA and IL-1, 72 hours
# [13] = 0.1m phosphate buffer, pH 7.4 buffer, 0.1M phosphate, 37° C., read-out: Stability (converted)
compound,measurement,setting,value
"CCC12CCCCN1C(=O)C(=O)[C@]1(O)O[C@@H](CC[C@H]1C)C[C@H](OC)/C(C)=C/C=C/C=C/[C@@H](C)C[C@@H](C)C(=O)[C@H](OC)[C@H](O)/C(C)=C/[C@@H](C)C(=O)C[C@@H]([C@H](C)C[C@@H]1CC[C@@H](O)[C@H](OC)C1)OC2=O (stereo partly shown) [22-ethyl-rapamycin, C-22-ethyl-rapamycin]",IC50,[1]; [12],140 nM
"CO[C@H]1C[C@@H]2CC[C@@H](C)[C@@](O)(O2)C(=O)C(=O)N2CCCCC2(C)C(=O)O[C@H]([C@H](C)C[C@@H]2CC[C@@H](O)[C@H](OC)C2)CC(O)[C@H](C)/C=C(\C)[C@@H](O)[C@@H](OC)C(=O)[C@H](C)C[C@H](C)/C=C/C=C/C=C/1C (stereo partly shown) [22-methyl-27-hydroxyrapamycin, C-22-methyl-C-27-hydroxy-rapamycin]",half-life,"[2]; 0.1m phosphate buffer, pH 7.4",21.8 h
same,IC50,[1]; [12],9.9 nM
"CO[C@H]1C[C@@H]2CC[C@@H](C)[C@@](O)(O2)C(=O)C(=O)N2CCCCC2(C)C(=O)O[C@H]([C@H](C)C[C@@H]2CC[C@@H](O)[C@H](OC)C2)CC(=O)[C@H](C)/C=C(\C)[C@@H](O)[C@@H](OC)C(=O)[C@H](C)C[C@H](C)/C=C/C=C/C=C/1C (stereo partly shown) [22-methyl-rapamycin, C-22-methyl-rapamycin]",half-life,"[2]; 0.1M phosphate buffer, pH 7.4, 37° C., read-out: half life in stability test (converted)",38 h
same,"Skin Graft (days), mean graft survival time",[3]; 4 mg/kg,9.33 ± 0.52 days and 9.00 ± 0.63 days
same,"Skin Graft (days), mean graft survival time",[3]; *tested at 16 mg/kg,10.17 ± 0.55 days
same,graft survival time (in words),[3]; relative to grafts without immunosuppressive agent (rejected within 6-7 days),increased survival time
same,IC50,[1]; [12],23.5 nM
"COC1CC2CCC(C)C(O)(O2)C(=O)C(=O)N2CCCCC2(C)C(=O)OC(C(C)CC2CCC(OC(=O)CN(C)C)C(OC)C2)CC(=O)C(C)C=C(C)C(O)C(OC)C(=O)C(C)CC(C)C=CC=CC=C1C (stereo not shown) [C-22-methyl-42-dimethylglycine-rapamycin, C-22-methyl-42-dimethylglycine rapamycin]",half-life,[2]; [13],13.5 h
same,IC50,[1]; [12],19.9 nM
CO[C@H]1C[C@@H]2CC[C@@H](C)[C@@](O)(O2)C(=O)C(=O)N2CCCC[C@H]2C(=O)O[C@H]([C@H](C)C[C@@H]2CC[C@@H](O)[C@H](OC)C2)CC(=O)[C@H](C)/C=C(\C)[C@@H](O)[C@@H](OC)C(=O)[C@H](C)C[C@H](C)/C=C/C=C/C=C/1C [rapamycin],antifungal activity,[4],"antifungal activity, particularly against Candida albicans, both in vitro and in vivo"
same,half life in stability test,"[2]; 0.1M phosphate buffer, pH 7.4, 37° C.",12 to 13 h
same,half-life,[2]; [13],12 to 13 h
same,"Skin Graft (days), mean graft survival time",[3]; 4 mg/kg,12.01 ± 0.26 days
same,IC50,"[1]; Mus musculus, 72 h",0.4 to 9.4 nM
same,effect in insulin dependent diabetes mellitus,[5],useful in preventing or treating
same,inhibition of formation of IgE-like antibodies,[6],effectively inhibited
same,effect in systemic lupus erythematosus,[7],useful in preventing or treating
same,effect in adjuvant arthritis model,[8],effective
same,effect on smooth muscle cell proliferation and intimal thickening,[9],useful in preventing or treating
same,effect in experimental allergic encephalomyelitis model,[10],effective
same,antitumor activity,[11],antitumor activity
